Assay results reported in US20100016232A1, “Treatment Of Inflammatory Diseases With Mammal Beta Defensins” (Novozymes A/S, priority 2008, published 2010).
Where no end group is shown, it is not given here.

Experiments:
[1] = tested on: TNF production from human peripheral blood mononuclear cells (PBMC); test: TNF production from human PBMC, Cytometric Bead Array; format: cell-based; settings: Table 16
Method: (§1) Peripheral blood was drawn from healthy volunteers (with approval from the relevant ethical committee in Denmark). Heparinized blood was diluted 1/1 v/v with RPMI and were subjected to Ficoll density centrifugation within 2 h of drawing. Plasma was collected from the top from individual donors and was kept on ice until it was used at 2% in the culture medium (autologous culture medium). Isolated PBMC were resuspended in autologous culture medium and seeded in 96-well culture plates with 255.000 cells per well in a total of 200 μl. […] The concentrations used for stimulation were optimized on 3 different donors in initial experiments, for LPS two different concentrations were used to be sure to be on a cytokine level that is possible to modulate. In some experiments PBMC were treated with Dexamethason and Indomethacin alone and together with LPS or LTA as a control on downregulation of inflammatory cytokines. The supernatants were collected after incubation at 37° C. for 24 hours, and stored at −80° C. until cytokine measurement. Viability was measured by Alamar Blue (Biosource, DALL 1100) in all experiments and in some cases also by MTS (Promega) according to manufacturer's instruction and was in some experiments also judged by counting of the cells by a Nucleocounter.
(§2) Cytokine production in supernatants was measured by flow cytometry with a human inflammation cytometric bead array (CBA) according to manufacturer's instructions (BD) on a FACSarray flow cytometer. The following cytokines were measured: IL-8, IL-1β, IL-10, TNF, IL-12 p70, IL-6. In some experiments, cytokines were measured by ELISA kits from R&D systems (IL-10, TNF-α, IL-1β) according to the manufacturer' instruction.

[2] = tested on: IL-1β production from human peripheral blood mononuclear cells (PBMC); test: IL-1β production from human PBMC, Cytometric Bead Array; format: cell-based; settings: Table 18
Method: as §1, §2

[3] = tested on: IL-10 production from human peripheral blood mononuclear cells (PBMC); test: IL-10 production from human PBMC, Cytometric Bead Array; format: cell-based; settings: Table 17
Method: as §1, §2

PBMC = PBMC viability, Alamar Blue; format: cell-based, human; settings: human PBMC, Example 2; 40 μg/ml
Method: as §1

[4] = LPS 0.6 ng/ml, test compound 1 μg/ml
[5] = LPS 0.6 ng/ml, test compound 10 μg/ml
[6] = LPS 0.6 ng/ml, test compound 40 μg/ml
[7] = LPS 20 ng/ml, test compound 1 μg/ml
[8] = LPS 20 ng/ml, test compound 10 μg/ml
[9] = LPS 20 ng/ml, test compound 40 μg/ml

Substance: hBD1: human beta defensin 1, SEQ ID NO:1; prepared using chemical synthesis, Peptide Institute Inc. (DHYNCVSSGGQCLYSACPIFTKIQGTCYRGKAKCCK; ends and bridges not checked; cysteine pairing not given here; listed as Homo sapiens)
- TNF [1, 4]: 474 pg/mL
- TNF % of control [1, 4]: 65%
- TNF [1, 5]: 203 pg/mL
- TNF % of control [1, 5]: 28%
- TNF [1, 6]: 91 pg/mL
- TNF % of control [1, 6]: 13%
- TNF [1, 7]: 1395 pg/mL
- TNF % of control [1, 7]: 64%
- TNF [1, 8]: 1311 pg/mL
- TNF % of control [1, 8]: 61%
- TNF [1, 9]: 999 pg/mL
- TNF % of control [1, 9]: 46%
- TNF ([1]; Medium, test compound 1 μg/ml): 1 pg/mL
- TNF ([1]; Medium, test compound 10 μg/ml): 0 pg/mL
- TNF ([1]; Medium, test compound 40 μg/ml): 0 pg/mL
- IL-1β [2, 4]: 512 pg/mL
- IL-1β % of control [2, 4]: 69%
- IL-1β [2, 5]: 401 pg/mL
- IL-1β % of control [2, 5]: 54%
- IL-1β [2, 6]: 302 pg/mL
- IL-1β % of control [2, 6]: 41%
- IL-1β [2, 7]: 2087 pg/mL
- IL-1β % of control [2, 7]: 82%
- IL-1β [2, 8]: 1913 pg/mL
- IL-1β % of control [2, 8]: 75%
- IL-1β [2, 9]: 1599 pg/mL
- IL-1β % of control [2, 9]: 63%
- IL-1β ([2]; Medium, test compound 1 μg/ml): 0 pg/mL
- IL-1β ([2]; Medium, test compound 10 μg/ml): 0 pg/mL
- IL-1β ([2]; Medium, test compound 40 μg/ml): 0 pg/mL
- IL-10 [3, 4]: 71 pg/mL
- IL-10 % of control [3, 4]: 108%
- IL-10 [3, 5]: 76 pg/mL
- IL-10 % of control [3, 5]: 114%
- IL-10 [3, 6]: 69 pg/mL
- IL-10 % of control [3, 6]: 104%
- IL-10 [3, 7]: 95 pg/mL
- IL-10 % of control [3, 7]: 85%
- IL-10 [3, 8]: 100 pg/mL
- IL-10 % of control [3, 8]: 90%
- IL-10 [3, 9]: 113 pg/mL
- IL-10 % of control [3, 9]: 102%
- IL-10 ([3]; Medium, test compound 1 μg/ml): 0 pg/mL
- IL-10 ([3]; Medium, test compound 10 μg/ml): 0 pg/mL
- IL-10 ([3]; Medium, test compound 40 μg/ml): 0 pg/mL

Substance: hBD4 variant: consists of amino acids 3-39 of hBD4, SEQ ID NO:5; prepared using chemical synthesis (ELDRICGYGTARCRKKCRSQEYRIGRCPNTYACCLRK; hBD-4 variant consisting of amino acids 3-39 of SEQ ID NO4)
- TNF [1, 4]: 468 pg/mL
- TNF % of control [1, 4]: 64%
- TNF [1, 5]: 211 pg/mL
- TNF % of control [1, 5]: 29%
- TNF [1, 7]: 778 pg/mL
- TNF % of control [1, 7]: 36%
- TNF [1, 8]: 139 pg/mL
- TNF % of control [1, 8]: 6%
- TNF ([1]; Medium, test compound 1 μg/ml): 0 pg/mL
- TNF ([1]; Medium, test compound 10 μg/ml): 0 pg/mL
- IL-1β [2, 4]: 286 pg/mL
- IL-1β % of control [2, 4]: 39%
- IL-1β [2, 5]: 163 pg/mL
- IL-1β % of control [2, 5]: 22%
- IL-1β [2, 7]: 1004 pg/mL
- IL-1β % of control [2, 7]: 40%
- IL-1β [2, 8]: 463 pg/mL
- IL-1β % of control [2, 8]: 18%
- IL-1β ([2]; Medium, test compound 1 μg/ml): 0 pg/mL
- IL-1β ([2]; Medium, test compound 10 μg/ml): 0 pg/mL
- IL-10 [3, 4]: 90 pg/mL
- IL-10 % of control [3, 4]: 136%
- IL-10 [3, 5]: 92 pg/mL
- IL-10 % of control [3, 5]: 139%
- IL-10 % of control [3, 7]: 157%
- IL-10 [3, 8]: 187 pg/mL
- IL-10 % of control [3, 8]: 168%
- IL-10 ([3]; Medium, test compound 1 μg/ml): 0 pg/mL
- IL-10 ([3]; Medium, test compound 10 μg/ml): 0 pg/mL
- toxicity to the cells (PBMC): toxic to the cells
